According to US9686982B2, “Treatment of potatoes and root vegetables during storage” (AMVAC CHEMICAL CORPORATION, priority 2013, dated 2017):

Experiments:
Potato variety FL 2053 = experiment: Sprout control in commercial storage in Canada (Storage Bin 3); assay type: in vivo; details: 115 ppm hot fogging, sprouted diseased tubers, FIG. 4
Method: (§1) One group of sprouted, diseased tubers (Storage Bin 3) were treated with 3-decen-2-one (as SmartBlock®) at the rate of 115 ppm using a hot fogging method. Another group of tubers was left untreated as a control.

tubers (cv Alturas) = experiment: Tuber firmness measured with TA-XT-2 texture analyzer; assay type: in vivo, potato; details: 115 ppm; for Tuber firmness (N) Average / Tuber firmness (N) Rep 1 / Tuber firmness (N) Rep 2 / Tuber firmness (N) Rep 3 / Tuber firmness (N) Rep 4: stored at 8° C.; for Tuber firmness (N) Rep 1 / Tuber firmness (N) Rep 2 / Tuber firmness (N) Rep 3 / Tuber firmness (N) Rep 4: mean of 6 tubers
Method: The source of tubers for this study was Telford Farms in Paul, Id. The storage unit temperature set point was 48.5° F. (9° C.). The tuber pulp temperatures ranged from 49 to 53.6° F. (9 to 12° C.) depending upon their location in the pile. Untreated tubers (cv Alturas) were selected from storage on Jul. 2, 2013 (prior to SmartBlock® application) to serve as untreated controls. About 200 lbs (91 kg) of these were distributed into 4 coolers with cold packs and transported to the Fed Ex office in Twin Falls, Id. at 1:45 pm where they remained in the air conditioned office until 6:23 pm when they left the facility. Untreated tubers to arrived in Pullman at 11:45 am on July 3.
SmartBlock® was applied at a rate of 4.2 fluid oz ton^−1 (136 mL MT^−1) to tubers remaining in the Telford Farms storage on July 2. Ventilation was suspended for an estimated 12 to 18 hrs. post treatment. A shipment of the treated tubers was packed as described above and delivered to Fed Ex in Twin Falls for shipment on July 3. The shipment arrived in Pullman on July 5 at 11:30 am.
Tubers were sorted into weight categories immediately upon arrival in Pullman, working at room temperature (˜25° C.) and in dim light (0.16-1.34 μE sec^−1 m^−2). Two experimental groups were created from the untreated (control) tubers; those with one or more sprouts ≧0.5 cm and those with no significant (>2 mm) sprouts. Sorting of tubers and their assignment to treatment groups for the various experiments was accomplished within 1.5 hr. and subsequently all tubers were placed in dark, walk-in storage at 8° C. with 85 to 90% RH. Humidity was maintained through the use of a household room humidifier, water on the concrete floor, and damp burlap placed on the empty shelves.
Tubers for firmness measurements were sorted by treatment and blocked for size. Each treatment group (containing at least 24 tubers) was stored in a plastic tote in the walk-in cold room at 8° C. Damp burlap was placed atop the tote so as not to contact the tubers directly. Burlap was re-wetted every two days. At 6, 13, 20, and 27 days after treatment (DAT), six tubers from each rep of each treatment (3-decen-2-one-treated and non-treated not sprouted) were selected and gently rinsed under cold running water to remove surface soil. The tubers were placed in plastic tubs and covered with damp paper towels for transport to the testing facility.
A TA-XT-2 texture analyzer (Stable Microsystems) was used to test tubers for firmness. A section of peel was removed from the midsection on opposite sides of the tuber. An 8-mm probe was lowered into the tuber tissue within this peeled area to a distance of 5 mm at a speed of 1 mm s^−1. Firmness was recorded as the N (m kg s−1) required to achieve the specified penetration. The two readings per tuber were averaged. Analysis of variance was performed on the data set.

[1] = test system: dry rot (Fusarium sambucinum); experiment: Disease defects in commercial storage in Canada (Storage Bin 3); assay type: in vivo
Method: as §1

[2] = Dec. 10, 2013, final grading after 115 ppm thermal fog

## CCCCCCC=CC(C)=O [3-decen-2-one]
Potato variety FL 2053
  sprouting compared to untreated controls: reduced/prevented sprouting
Tubers (cv Alturas); 6 days after treatment
  % Increase (tuber firmness vs untreated): 4.09%
  Tuber firmness (N) Average: 75.38 N
  Tuber firmness (N) Rep 1: 67.84 N
  Tuber firmness (N) Rep 2: 79.18 N
  Tuber firmness (N) Rep 3: 75.64 N
  Tuber firmness (N) Rep 4: 78.85 N
Tubers (cv Alturas); 13 days after treatment
  % Increase (tuber firmness vs untreated): 2.80%
  Tuber firmness (N) Average: 73.45 N
  Tuber firmness (N) Rep 1: 73.22 N
  Tuber firmness (N) Rep 2: 67.34 N
  Tuber firmness (N) Rep 3: 73.98 N
  Tuber firmness (N) Rep 4: 79.26 N
Tubers (cv Alturas); 20 days after treatment
  % Increase (tuber firmness vs untreated): 3.28%
  Tuber firmness (N) Average: 74.90 N
  Tuber firmness (N) Rep 1: 74.51 N
  Tuber firmness (N) Rep 2: 74.63 N
  Tuber firmness (N) Rep 3: 72.81 N
  Tuber firmness (N) Rep 4: 77.64 N
[1]; 115 ppm hot fogging, sprouted diseased tubers, FIG. 4
  symptoms of dry rot compared to untreated controls: decreased or eliminated symptoms of dry rot
[1]; Dec. 10, 2013, bin unloaded after 115 ppm thermal fog on Nov. 13, 2013 (14.30 before treatment), variety FL 2053
  % Total Defects: 4.23%
[1]; [2]
  moistness of tubers: tubers were not moist and mold
  mold development: development had been arrested.
[1]; Dec. 10, 2013 versus Nov. 13, 2013 before treatment, 115 ppm thermal fog
  Change (of % total defects): -70.4
